system: MOLM-13 cells; assay: MOLM-13 Cell Proliferation Assay (indicator of DHODH inhibition); format: cell-based; conditions: 72 Hours of culture, CellTiter-Glo, no uridine
Method in brief: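 Low-passage MOLM-13 cells (10^4/well) in RPMI 1640 + 10% FBS exposed to compound (0.5% DMSO final) for 72 h at 37 °C, 5% CO2. Viability read by CellTiter-Glo luminescence; growth reflects de novo pyrimidine synthesis dependent on DHODH.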

IC50 [nM] | Compound
8.1 | COC(=O)c1ncc([C@H]2c3[nH]c4ccc(Cl)cc4c3CCN2c2nc(C(F)(F)F)nc(C(F)(F)F)n2)cn1 [Compound 532, methyl 5-{(1S)-2-[4,6-bis(trifluoromethyl)-1,3,5-triazin-2-yl]-6-chloro-2,3,4,9-tetrahydro-1H-pyrido[3,4-b]indol-1-yl} pyrimidine-2-carboxylate]

same assay, conditions: Homo sapiens, 72 Hours of culture, CellTiter-Glo, no uridine

Compound | IC50 [nM]
Cc1ccc([C@H]2c3[nH]c4ccc(Cl)cc4c3CCN2c2nc(C#N)cc(C#N)n2)cc1 [Compound 397, 2-[(1S)-6-chloro-1-(4-methylphenyl)-1,3,4,9-tetrahydro-2H-pyrido[3,4-b]indol-2-yl]pyrimidine-4,6-dicarbonitrile] | 2.4
Cc1ccnc(N2CCc3c([nH]c4ccc(Cl)c(F)c34)C2c2ccc(/C=C/CCO)cc2)n1 (stereo not drawn) [Compound 237, (3E)-4-{4-[6-chloro-5-fluoro-2-(4-methylpyrimidin-2-yl)-2,3,4,9-tetrahydro-1H-pyrido[3,4-b]indol-1-yl]phenyl}but-3-en-1-ol] | 4.7
Cc1ccc([C@H]2c3[nH]c4ccc(Br)cc4c3CCN2c2nc(C(F)(F)F)nc(C(F)(F)F)n2)c(F)c1F [Compound 523, (1S)-2-[4,6-bis(trifluoromethyl)-1,3,5-triazin-2-yl]-6-bromo-1-(2,3-difluoro-4-methylphenyl)-2,3,4,9-tetrahydro-1H-pyrido[3,4-b]indole] | 0.6
FC(F)(F)c1cnc(N2CCc3c([nH]c4ccc(Cl)cc34)C2c2cnc(N3CCOCC3)nc2)nn1 (stereo not drawn) [Compound 458, 6-chloro-1-[2-(morpholin-4-yl)pyrimidin-5-yl]-2-[6-(trifluoromethyl)-1,2,4-triazin-3-yl]-2,3,4,9-tetrahydro-1H-pyrido[3,4-b]indole] | 4.6
Cc1ccc(C2c3[nH]c4ccc(Cl)cc4c3CCN2c2nc(C)cc(C#N)n2)cc1 (stereo not drawn) [Compound 379, 2-[6-chloro-1-(4-methylphenyl)-1,3,4,9-tetrahydro-2H-pyrido[3,4-b]indol-2-yl]-6-methylpyrimidine-4-carbonitrile] | 4.5
Cc1nc(N2CCc3c([nH]c4ccc(Cl)c(F)c34)C2c2ccc(/C=C/CCO)cc2)ncc1F (stereo not drawn) [Compound 241, (3E)-4-{4-[6-chloro-5-fluoro-2-(5-fluoro-4-methylpyrimidin-2-yl)-2,3,4,9-tetrahydro-1H-pyrido[3,4-b]indol-1-yl]phenyl}but-3-en-1-ol] | 3.4
Fc1cnc(N2CCc3c([nH]c4cc(F)c(Cl)cc34)C2c2ccc(Cl)cc2)nc1 (stereo not drawn) [Compound 11, 6-chloro-1-(4-chlorophenyl)-7-fluoro-2-(5-fluoropyrimidin-2-yl)-2,3,4,9-tetrahydro-1H-pyrido[3,4-b]indole] | 35.4
Cc1nc(N2CCc3c([nH]c4ccc(Cl)cc34)[C@@H]2c2cnc(N3CCOCC3)nc2)nc(C(F)(F)F)n1 [Compound 466, (1S)-6-chloro-2-[4-methyl-6-(trifluoromethyl)-1,3,5-triazin-2-yl]-1-[2-(morpholin-4-yl)pyrimidin-5-yl]-2,3,4,9-tetrahydro-1H-pyrido[3,4-b]indole] | 0.9
Cc1ccc(C2c3[nH]c4ccc(Cl)c(F)c4c3CCN2c2nc(C)c(F)c(C)n2)cc1 (stereo not drawn) [Compound 116, 6-chloro-5-fluoro-2-(5-fluoro-4,6-dimethylpyrimidin-2-yl)-1-(4-methylphenyl)-2,3,4,9-tetrahydro-1H-pyrido[3,4-b]indole] | 6.7
Cc1cnn(-c2ccc3[nH]c4c(c3c2)CCN(c2nc(C(F)(F)F)cc(C(F)(F)F)n2)C4c2ccc(N3CCOCC3)nc2)n1 (stereo not drawn) [Compound 455, 2-[4,6-bis(trifluoromethyl)pyrimidin-2-yl]-6-(4-methyl-2H-1,2,3-triazol-2-yl)-1-[6-(morpholin-4-yl)pyridin-3-yl]-2,3,4,9-tetrahydro-1H-pyrido[3,4-b]indole] | 5.2
Cc1ccc(C2c3[nH]c4ccc(Cl)cc4c3CCN2c2ncc(F)cn2)c(F)c1F (stereo not drawn) [Compound 401, 6-chloro-1-(2,3-difluoro-4-methylphenyl)-2-(5-fluoropyrimidin-2-yl)-2,3,4,9-tetrahydro-1H-pyrido[3,4-b]indole] | 3.2
Cc1ccc(C2c3[nH]c4cc(F)c(Cl)cc4c3CCN2c2ncc(Cl)cn2)cc1 (stereo not drawn) [Compound 41, 6-chloro-2-(5-chloropyrimidin-2-yl)-7-fluoro-1-(4-methylphenyl)-2,3,4,9-tetrahydro-1H-pyrido[3,4-b]indole] | 19.6
N#Cc1nc(N2CCc3c([nH]c4ccc(Cl)cc34)[C@@H]2c2ccc(N3CCOCC3)nc2)ncc1F [Compound 400, 2-{(1S)-6-chloro-1-[6-(morpholin-4-yl)pyridin-3-yl]-1,3,4,9-tetrahydro-2H-pyrido[3,4-b]indol-2-yl}-5-fluoropyrimidine-4-carbonitrile] | 2.3
Cc1ccc([C@H]2c3[nH]c4ccc(Cl)cc4c3CCN2c2nc(C)c(F)c(C)n2)c(F)c1F [Compound 412, (1S)-6-chloro-1-(2,3-difluoro-4-methylphenyl)-2-(5-fluoro-4,6-dimethylpyrimidin-2-yl)-2,3,4,9-tetrahydro-1H-pyrido[3,4-b]indole] | 1
COc1ccc(C2c3[nH]c4cc(F)c(Cl)cc4c3CCN2c2ncc(F)cn2)cn1 (stereo not drawn) [Compound 8, 6-chloro-7-fluoro-2-(5-fluoropyrimidin-2-yl)-1-(6-methoxypyridin-3-yl)-2,3,4,9-tetrahydro-1H-pyrido[3,4-b]indole] | 34.8

Other lines, results leading:

IC50 [nM] | Compound
98.2 | FC(F)(F)c1ccnc(N2CCc3c([nH]c4ccc(Cl)cc34)C2c2ccc(-n3cnnc3)cc2)n1 (stereo not drawn) [Compound 269, 6-chloro-1-[4-(4H-1,2,4-triazol-4-yl)phenyl]-2-[4-(trifluoromethyl)pyrimidin-2-yl]-2,3,4,9-tetrahydro-1H-pyrido[3,4-b]indole]
1.5 | Fc1cc2[nH]c3c(c2cc1Cl)CCN(c1nccc(C(F)(F)F)n1)C3c1ccc(Br)c(F)c1F (stereo not drawn) [Compound 172, 1-(4-bromo-2,3-difluorophenyl)-6-chloro-7-fluoro-2-[4-(trifluoromethyl)pyrimidin-2-yl]-2,3,4,9-tetrahydro-1H-pyrido[3,4-b]indole]
3.5 | Oc1cc(Cl)ccc1C1c2[nH]c3ccc(Cl)cc3c2CCN1c1nccc(C(F)(F)F)n1 (stereo not drawn) [Compound 222, 5-chloro-2-{6-chloro-2-[4-(trifluoromethyl)pyrimidin-2-yl]-2,3,4,9-tetrahydro-1H-pyrido[3,4-b]indol-1-yl}phenol]
17.2 | Fc1cncc(C2c3[nH]c4cc(F)c(Cl)cc4c3CCN2c2nccc(C(F)(F)F)n2)c1 (stereo not drawn) [Compound 145, 6-chloro-7-fluoro-1-(5-fluoropyridin-3-yl)-2-[4-(trifluoromethyl)pyrimidin-2-yl]-2,3,4,9-tetrahydro-1H-pyrido[3,4-b]indole]
82.1 | FC(F)(F)c1ccnc(N2CCc3c([nH]c4ccc(Cl)cc34)C2c2ccc(Cl)nc2Cl)n1 (stereo not drawn) [Compound 319, 6-chloro-1-(2,6-dichloropyridin-3-yl)-2-[4-(trifluoromethyl)pyrimidin-2-yl]-2,3,4,9-tetrahydro-1H-pyrido[3,4-b]indole]
9.8 | CN(C)c1ncc(C2c3[nH]c4cc(F)c(Cl)cc4c3CCN2c2nccc(C(F)(F)F)n2)cc1F (stereo not drawn) [Compound 158, 5-{6-chloro-7-fluoro-2-[4-(trifluoromethyl)pyrimidin-2-yl]-2,3,4,9-tetrahydro-1H-pyrido[3,4-b]indol-1-yl}-3-fluoro-N,N-dimethylpyridin-2-amine]
1 | Cc1ccc(C2c3[nH]c4cc(F)c(Cl)cc4c3CCN2c2nccc(C(F)(F)F)n2)c(F)c1F (stereo not drawn) [Compound 140, 6-chloro-1-(2,3-difluoro-4-methylphenyl)-7-fluoro-2-[4-(trifluoromethyl)pyrimidin-2-yl]-2,3,4,9-tetrahydro-1H-pyrido[3,4-b]indole]
2 | FC(F)(F)c1ccnc(N2CCc3c([nH]c4ccc(Cl)cc34)C2c2cnc(N3CCOCC3)nc2)n1 (stereo not drawn) [Compound 251, 6-chloro-1-[2-(morpholin-4-yl)pyrimidin-5-yl]-2-[4-(trifluoromethyl)pyrimidin-2-yl]-2,3,4,9-tetrahydro-1H-pyrido[3,4-b]indole]
20 | Cc1ccc(C2c3[nH]c4ccc(Cl)cc4c3CCN2c2nccc(N(C)C)n2)c(F)c1F (stereo not drawn) [Compound 306, 2-[6-chloro-1-(2,3-difluoro-4-methylphenyl)-1,3,4,9-tetrahydro-2H-pyrido[3,4-b]indol-2-yl]-N,N-dimethylpyrimidin-4-amine]
0.6 | CN1CCN(c2ccc([C@H]3c4[nH]c5ccc(Cl)cc5c4CCN3c3nc(C(F)(F)F)cc(C(F)(F)F)n3)cn2)CC1 [Compound 481, (1S)-2-[4,6-bis(trifluoromethyl)pyrimidin-2-yl]-6-chloro-1-[6-(4-methylpiperazin-1-yl)pyridin-3-yl]-2,3,4,9-tetrahydro-1H-pyrido[3,4-b]indole]
8.8 | Fc1cccc(C2c3[nH]c4ccc(Cl)cc4c3CCN2c2nccc(C(F)(F)F)n2)c1 (stereo not drawn) [Compound 371, 6-chloro-1-(3-fluorophenyl)-2-[4-(trifluoromethyl)pyrimidin-2-yl]-2,3,4,9-tetrahydro-1H-pyrido[3,4-b]indole]
19.3 | C=Cc1ccc(C2c3[nH]c4ccc(Cl)cc4c3CCN2c2ncc(F)cn2)cc1 (stereo not drawn) [Compound 71, 6-chloro-1-(4-ethenylphenyl)-2-(5-fluoropyrimidin-2-yl)-2,3,4,9-tetrahydro-1H-pyrido[3,4-b]indole]
6 | Cc1ccc(C2c3[nH]c4cc(F)c(Cl)cc4c3CCN2c2nccc(Cl)n2)cc1 (stereo not drawn) [Compound 43, 6-chloro-2-(4-chloropyrimidin-2-yl)-7-fluoro-1-(4-methylphenyl)-2,3,4,9-tetrahydro-1H-pyrido[3,4-b]indole]
7.3 | Fc1cc(-n2ccnc2)ccc1C1c2[nH]c3ccc(Cl)cc3c2CCN1c1nccc(C(F)(F)F)n1 (stereo not drawn) [Compound 275, 6-chloro-1-[2-fluoro-4-(1H-imidazol-1-yl)phenyl]-2-[4-(trifluoromethyl)pyrimidin-2-yl]-2,3,4,9-tetrahydro-1H-pyrido[3,4-b]indole]

Source: US20250186437A1, “CARBOLINE COMPOUNDS AND USE THEREOF” (PTC Therapeutics, Inc., priority 2021, published 2025)
